Results reported in patent US5455255A, “2-(2,3,5,6-tetrafluoro-4-pyridyl)-1,2-benzisothiazol-3(2H)-one 1,1-dioxides and compositions and method of use thereof” (Sterling Winthrop Inc., priority 1994, dated 1995).
pKi: −log10 of the molar value.

Target: T1, human leukocyte elastase (Homo sapiens, UniProt P08246)
T1 sequence (P08246 30-267): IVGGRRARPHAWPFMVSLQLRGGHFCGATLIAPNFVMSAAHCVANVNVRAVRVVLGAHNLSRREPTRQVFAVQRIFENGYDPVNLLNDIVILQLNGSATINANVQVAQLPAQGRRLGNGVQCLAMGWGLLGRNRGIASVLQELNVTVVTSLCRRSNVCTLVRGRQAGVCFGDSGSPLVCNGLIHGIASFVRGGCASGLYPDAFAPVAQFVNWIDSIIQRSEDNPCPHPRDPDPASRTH
Experiment: Human leukocyte elastase (HLE) inhibition, progress-curve assay with MeOSuc-Ala-Ala-Pro-Val-pNA
Assay type: biochemical
Details: substrate MeOSuc-Ala-Ala-Pro-Val-pNA, pH 7.8, 25° C., absorbance 410 nm, read-out: Ki (human leukocyte elastase inhibitory activity)
Protocol: The test compound (inhibitor) is dissolved in DMSO in a vial to produce an inhibitor stock solution which has a concentration in the range of 200-1000 μM. The inhibitor stock solution is diluted (1:4, 1:16 and 1:64) into assay vials (vials 1, 2 and 3 respectively) containing 2.4 mL of buffer solution (50 mM N-[2-hydroxyethyl] piperazine-N'-[2-ethanesulfonic acid]/NaOH, 500 mM NaCl, pH 7.8 at 25° C.) and DMSO is added so that the total volume in each vial is 3.2 mL. 70 μL, 50 μL, 35 μL and 25 μL of inhibitor from assay vial 1 is placed into the first four wells of a 96-well microtiter plate and each well is made up to 90 μL total volume with the addition of a 25% DMSO/buffer solution. The inhibitor from assay vials 2 and 3 is processed in a similar manner and placed in wells 5-12 respectively to afford a total of 12 different inhibitor concentrations. Four wells (wells 13-16) containing 90 μL of the 25% DMSO/buffer solution but no inhibitor are also run simultaneously with the inhibited wells as a control. 150 μL of substrate solution (prepared by the addition of 500 μL of the human leukocyte elastase (HLE) substrate MeOSuc-Ala-Ala-Pro-Val-pNA (18.7 mM in DMSO) to 19.5 mL of buffer solution) was then added simultaneously into each of the 16 wells and the solution in each well was thoroughly mixed.
The 96-well microtiter plate was placed into a Microplate Reader #89815A spectrophotometer 110 μL of the enzyme solution (prepared as follows: a mixture of 20 mL of buffer solution and 20 mg of bovine serum albumen is gently vortexed in a scintillation vial and 5 μL HLE stock solution (1 mg/mL dissolved in deionized water) is added simultaneously to each of the 16 wells. Each of the solutions in the wells is throughly mixed and then the time-dependent absorbance data is collected at an absorbance of 410 nm until the assay is complete. It should be noted that although this assay method can be done manually, it is preferred to perform the assay robotically using a Hewlett Packard MicroAssay System Robot.
A plot of the absorbance versus time data thus obtained affords progress curves the final slope of which is equal to the final steady-state velocities (VF). Using the program. ENZFITTER (Elsevier software), the progress curves for the four control assays ([I]=O) are fit by linear regression to yield the enzyme reaction velocity values in the absences of inhibitor (Vo) which are averaged to produce a single fixed value. The inhibition constant Ki (nM) is then obtained from a plot of [formula] which affords a linear plot wherein: [formula] and [S] is the concentration of the substrate and Km is the Michaelis constant.
Table IV summarizes the results obtained from the testing of representative compounds of the invention for human leukocyte elastase inhibitory activity.

pKi | SMILES
8.85 | CCOc1cccc2c1C(=O)N(c1c(F)c(F)nc(F)c1F)S2(=O)=O [Example 8]
7.32 | COc1cc2c(c(C(C)C)c1OC)C(=O)N(c1c(F)c(F)nc(F)c1F)S2(=O)=O [Example 3]
7.80 | CCCc1c(OC)c(OC)cc2c1C(=O)N(c1c(F)c(F)nc(F)c1F)S2(=O)=O [Example 6]
7.82 | COc1ccc2c(c1OC)C(=O)N(c1c(F)c(F)nc(F)c1F)S2(=O)=O [Example 5]
5.70 | CC(C)c1cc(O)cc2c1C(=O)N(c1c(F)c(F)nc(F)c1F)S2(=O)=O [Example 11, 4-isopropyl-6-hydroxy-2-(2,3,5,6-tetrafluoro-4-pyridyl)-1,2-benzisothiazol-1,2-benzisothiazol-3(2H)-one 1,1-dioxide]
6.85 | CC(C)Oc1cccc2c1C(=O)N(c1c(F)c(F)nc(F)c1F)S2(=O)=O [Example 9]
7.30 | CC(C)Oc1cc(C(C)C)c2c(c1)S(=O)(=O)N(c1c(F)c(F)nc(F)c1F)C2=O [Example 12, 4-isopropyl-6-isopropoxy-2-(2,3,5,6-tetrafluoro-4-pyridyl)-1.2-benzisothiazol-3(2H)-one 1,1-dioxide]
7.42 | COc1cc(C(C)C)c2c(c1)S(=O)(=O)N(c1c(F)c(F)nc(F)c1F)C2=O [Example 2, 4-isopropyl-6-methoxy-2-(2,3,5,6-tetrafluoro-4-pyridyl)-1,2-benzisothiazol-3(2H)-one 1,1-dioxide]
7.00 | CC(C)c1cccc2c1C(=O)N(c1c(F)c(F)nc(F)c1F)S2(=O)=O [Example 10]
7.70 | O=C1c2ccccc2S(=O)(=O)N1c1c(F)c(F)nc(F)c1F [Example 1, 2-(2,3,5,6-tetrafluoro-4-pyridyl)-1,2-benzisothiazol-3(2H)-one 1,1-dioxide]
7.13 | COc1ccc2c(c1)S(=O)(=O)N(c1c(F)c(F)nc(F)c1F)C2=O [Example 10A]
8.40 | COc1cc(OC)c2c(c1)S(=O)(=O)N(c1c(F)c(F)nc(F)c1F)C2=O [Example 4]
8.19 | COc1cccc2c1C(=O)N(c1c(F)c(F)nc(F)c1F)S2(=O)=O [Example 7]
